Assays:
[1] = system: blood vessel permeability; assay: Miles assay for vascular permeability after PLND; type: in vivo; conditions: topical tacrolimus 2 weeks, PLND mice, vs vehicle control
Procedure: Additionally, to ensure that the observed effects of tacrolimus on lymphatic function were not a result of decreased vascular permeability and blood vessel leakage, we performed a Miles assay to measure blood vessel permeability following PLND surgeries with and without tacrolimus. […] In-vivo detection of ROS was performed by bioluminescent imaging of NADPH oxidase as described by Han et al. (J. Vis. Exp. doi: 10.3791/3925 (2012)). Briefly, mice were systemically injected with L-012 (an analogue of luminol) (20 μg/g) dissolved in PBS at different time points after PLND and luminescent signals representing ROS at the PLND surgery site were imaged and quantified using IVIS spectrum 200 (Xenogen Corporation). Miles assay for vascular permeability was performed as described. Radu et al., J. Vis. Exp. doi: 10.3791/50062 (2013). Briefly, 200 μl of 0.5% sterile Evans blue was injected via tail vein to 2 weeks tacrolimus treated PLND mice. After 30 min PLND hind limbs were imaged to observe Evans blue leakage. Hind limbs were excised and incubated in formamide for 48 hrs. at 55° C. to extract the Evans blue. Extracted Evans blue was quantified by measuring absorbance at 610 nm.

[2] = Tacrolimus blood level by mass spectrometry; type: in vivo, mice
Procedure: Blood levels of tacrolimus were measured using mass spectrometry in a modification of a previously reported method. Donaldson et al., Meth. Mol. Biol. 603:479-487 (2010). Briefly, whole blood was collected in sodium EDTA-coated tubes (Terumo, Shibuya, Japan) and then analyzed using a Thermo Scientific Aria TLX-2 turbulent flow chromatograph (TFC) coupled to a TSQ Quantum Ultra triple quadrupole mass spectrometer (Thermo Scientific, Franklin, Mass.). The TurboFlow column used was a Cyclone P-50×0.5 mm while the analytical column was a Hypersil Gold C-18 column, 3×50 mm. To whole blood (50 μL) was added 200 μL of 0.2 mM ZnSO4 containing ascomycin as an internal standard. Following a 30 minute incubation and centrifugation, 50 μL of the supernatant was injected into the TFC system. The analytes were eluted through the column (0.75 mL min^−1) with a gradient of water and methanol solutions containing 10 mM ammonium formate and 0.1% formic acid. The analytical run time was 4.5 minutes. The between-day imprecision of the assay was determined at three concentrations over a period of 10 days. At concentrations of 3.3, 12.6 and 31.9 ng mL^−1 the coefficients of variation were of 9.8, 7.0 and 7.8%, respectively. The assay has a linear range from 0 to 40 ng mL^−1.

unwounded mouse ears = assay: Unwounded mouse ears, whole mount imaging of lymphatic vessels; type: in vivo, mice; conditions: tacrolimus applied to unwounded ears for 4 weeks
From the text: We also studied lymphangiogenesis during wound healing using an ear punch wound model and applying topical tacrolimus or control ointment for 4 weeks. […] To test the possibility of direct lymphangiogenic effects of tacrolimus, we applied tacrolimus to unwounded mouse ears for 4 weeks, and then performed whole mount confocal imaging of lymphatic vessels. We observed no increase in lymphangiogenesis in this uninjured, non-inflamed setting (FIG. 16).

[3] = system: circulating blood T cells; assay: Flow cytometry of peripheral blood T cells; type: in vivo, mice
Procedure: Flow cytometry was performed on peripheral blood samples as previously reported. Zampell et al., PLoS ONE 7:e49940 (2012). Briefly, erythrocytes were lysed with RBC lysis buffer (Ebioscience, San Diego, Calif.) followed by staining with fluorophore-conjugated antibodies (CD45, CD3, and CD4; all from Biolegend, San Diego, Calif.) and analysis with a FACSCalibur flow cytometer (BD Biosciences, Franklin Lakes, N.J.) using FlowJo software (Tree Star, Ashland, Oreg.).

[4] = reference range; cited from earlier work
[5] = system: hind limb collecting lymphatics of non-operated animals; assay: Non-operated (sham) hind limb, NIR lymphatic imaging; type: in vivo, mice; conditions: tacrolimus, non-operated animals (anesthesia only, no surgery)
From the text: Upper panels are representative images of NIR lymphatic images of the hind limb lymphatics in sham operated mice (i.e., anesthesia without incision or PLND) following treatment with control or topical tacrolimus for 2 weeks. Quantification of collecting lymphatic vessel pulsation frequency following 3 or 14 days of treatment with tacrolimus is shown below.
This is important since previous studies have shown that perilymphatic iNOS expression is an important regulator of collecting lymphatic pumping capacity. Liao et al., Proc. Natl. Acad. Sci. USA 108:18784-18789 (2011).

[6] = system: popliteal lymph node dissection (PLND) mouse model; assay: Popliteal lymph node dissection (PLND) hind limb model of lymphatic injury; conditions: 4 weeks after PLND
From the text: To enable analysis of the lymphatic collecting vessel pumping capacity we utilized a previously described mouse popliteal lymphadenectomy model. […] Briefly, the hind limb collecting vessels and popliteal lymph nodes were identified and the lymph nodes were excised with the popliteal fat pad. Beginning 2 weeks after surgery, animals were randomized to treatment with either 0.1% topical tacrolimus or vehicle control (petroleum jelly) twice daily for 2 weeks.
Near infrared imaging (NIR) was performed using a modification of previously published results. […] Briefly, 15 μl (0.15 mg mL^−1) indocyanine green (ICG, Sigma-Aldrich, Saint Louis, Mo.) was injected intradermally in the web space of the dorsal hind limb and visualized using an EVOS EMCCD camera (Life Technologies, Carlsbad, Calif.) with a LED light source (CoolLED, Andover, United Kingdom). Static/video images were obtained using a Zeiss V12 Stereolumar microscope (Caliper Life Sciences, Hopkinton, Mass.) and lymphatic pumping function was analyzed using Fiji software (NIH, Bethesda, Md.) by identifying a region-of-interest over the dominant collecting vessel of the leg and subtracting the background fluorescent intensity plotted over time.
Immunohistochemical staining was performed using our published methods. […] Briefly, tissues were fixed in 4% paraformaldehyde at 4° C., decalcified in 5% sodium EDTA (Santa Cruz Biotechnology, Dallas, Tex.), embedded in paraffin, and sectioned at 5 micrometers. Cut sections were rehydrated and heat-mediated antigen unmasking was performed using 90° C. sodium citrate (Sigma-Aldrich). Non-specific binding was blocked with 2% BSA/20% animal serum. Tissues were incubated overnight with primary antibody at 4° C. Primary antibodies used for immunohistochemical stains included goat anti-mouse LYVE-1, rat anti-mouse CD45, rabbit anti-mouse CD4, and rat anti-mouse F4/80 (all from R&D, Minneapolis, Minn.), rabbit anti-mouse CD3 (from Dako, Carpinteria, Calif.), Cy3-conjugated mouse anti-αSMA (from Sigma-Aldrich), rabbit anti-human IFN-γ, rabbit anti-mouse TGF-β1, rabbit anti-mouse p-SMAD3, rabbit anti-mouse collagen I, rabbit-anti-mouse iNOS, and hamster-anti-mouse podoplanin, rabbit anti-mouse HMGB-1 and HSP-70 (all from ABCAM, Cambridge, Mass.).
Immunofluorescence staining was performed using AlexaFluor fluorophore-conjugated secondary antibodies (Life Technologies, Norwalk, Conn.). Images were scanned using Mirax imaging software (Carl Zeiss).

[7] = topical tacrolimus, vs vehicle treated controls
[8] = topical 0.1% tacrolimus twice daily for 2 weeks from 2 weeks after PLND, vs vehicle control
[9] = topical 0.1% tacrolimus, vs control
[10] = topical 0.1% tacrolimus, vs vehicle treated controls

C=CC[C@@H]1/C=C(\C)C[C@H](C)C[C@H](OC)[C@H]2O[C@@](O)(C(=O)C(=O)N3CCCC[C@H]3C(=O)O[C@H](/C(C)=C/[C@@H]3CC[C@@H](O)[C@H](OC)C3)[C@H](C)[C@@H](O)CC1=O)[C@H](C)C[C@@H]2OC [tacrolimus]
blood vessel permeability (Evans blue) [1]: no differences
whole blood tacrolimus levels ([2]; systemic tacrolimus 4 mg kg^−1 IP daily): immunosuppressive concentrations
whole blood tacrolimus level (systemic absorption), mean value ([2]; topical tacrolimus): 1.06 ng/mL
lymphangiogenesis in uninjured, non-inflamed ear (unwounded mouse ears): no increase
blood T cells (CD3+) ([3]; systemic tacrolimus 4 mg kg^−1 IP daily, vs vehicle control): significant reduction
circulating CD4+ cells [3, 7]: no changes
circulating blood T cells (CD3+) [3, 7]: no changes
known therapeutic immunosuppressive levels achieved with systemic administration [4]: 5 to 15 ng/mL
lymphatic contraction frequency [5]: did not increase
perilymphatic accumulation of inflammatory cells [5]: did not increase
increase in collecting lymphatic packet frequency [6, 8]: > 2 fold
lymphatic leakiness and dermal back flow of ICG [6, 8]: markedly decreased
collateral lymphatics draining towards the inguinal lymph node ([6]; topical 0.1% tacrolimus, NIR imaging and IF staining, vs control): significantly more
luminal area of hind limb collectors [6, 9]: no differences
number of alpha smooth muscles surrounding hind limb collecting lymphatics [6, 9]: no differences
reduction in perilymphatic CD4+ cells [6, 10]: 56%
reduction in perilymphatic CD45+ cells [6, 10]: 39%
reduction in perilymphatic F4/80+ cells [6, 10]: 36%
reduction in the number of perilymphatic iNOS-expressing cells [6, 10]: 42%
